The text below walks through data of US20080038278A1, “GPAT3 encodes a mammalian, microsomal acyl-coa:glycerol 3- phosphate acyltransferase” (priority 2006, published 2008).

In one assay the target is T1, hGPAT3 (Homo sapiens, UniProt Q53EU6).
T1 construct: full-length mouse and human GPAT3 were cloned by PCR amplification from cDNA libraries; made in house; host or cells: Sf9 insect cells (baculovirus, pFASTBAC1), total lysate; some experiments used lysates of HEK293 cells transfected with hGPAT3 in pcDNA3.1
T1 sequence (Q53EU6 1-434): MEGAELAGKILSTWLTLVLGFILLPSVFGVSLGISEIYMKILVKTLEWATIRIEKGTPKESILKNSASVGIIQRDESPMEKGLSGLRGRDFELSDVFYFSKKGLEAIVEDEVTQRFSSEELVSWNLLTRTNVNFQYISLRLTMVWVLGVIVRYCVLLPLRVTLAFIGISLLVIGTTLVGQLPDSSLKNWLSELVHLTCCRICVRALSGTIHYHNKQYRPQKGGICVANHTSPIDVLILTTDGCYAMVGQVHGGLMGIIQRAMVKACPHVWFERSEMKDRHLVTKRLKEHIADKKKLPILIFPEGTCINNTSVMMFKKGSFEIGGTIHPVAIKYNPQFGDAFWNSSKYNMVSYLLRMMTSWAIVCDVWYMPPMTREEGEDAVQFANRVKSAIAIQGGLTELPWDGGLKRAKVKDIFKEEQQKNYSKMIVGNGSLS
The experiment in a line: GPAT activity assay (TLC separation of LPA) in lysates of cells overexpressing hGPAT3. It counts as biochemical. The note with it: for substrate concentration at half-maximal activity (hGPAT3-dependent LPA formation): hGPAT3 expressed in Sf9 cells, nonpurified lysate, other substrate at 100 μM; for increase in LPA formation conferred by hGPAT3 overexpression after NEM pretreatment: preincubated 15 min with NEM (0.4 mM, 0.4 μM elsewhere in the source). From the text:
Sf9 cells were infected with recombinant baculovirus at an MOI of 10 for 64 hrs. Cell pellets were harvested in ice-cold phosphate-buffered saline (PBS), lysed by sonication or Parr bomb, and total lysate was used immediately for enzyme assay. For subcellular fractionation, cel.ls were lysed with a rapid nitrogen decompression method (Parr Instrument Company, IL), followed by differential centrifugation at 8,000g (mitochondrial fraction) and 1 00,000g (microsomal fraction). Total protein concentration was assayed using a Bio-Rad protein assay with bovine serum albumin (BSA) as a standard (Bio-Rad, Hercules, Calif.). GPAT activity was determined by measuring the conversion of glycerol 3-phosphate (G3 P) to 1-acyl-sn-glycerol 3-phosphate in the presence of acyl-CoA. Formation of enzymatic products was detected by either the conventional 1-butanol extraction method followed by scintillation counting, or by thin layer chromatography (TLC) separation followed by exposure to a phosphorimager screen. GPAT activity assay by I -butanol extraction was performed as described (Yet et al., supra; Haldar and Vancura (1992) Methods Enzymol. 209:64-72). Briefly, cell lysates containing 100 μg protein were incubated for 20 min at room temperature in 75 mM Tris HCl, pH 7.5, 4 mM MgCl2, 1 mg/ml fatty acid-free BSA, 8 mM NaF, 50 μM lauroyl-CoA, 3 mM glycerol 3-phosphate, and 1 μCi of [^3H]glycerol 3-phosphate (30 Ci/mmol, American Radiolabeled Chemicals, Inc., St. Louis, Mo.) in a total volume of 250 μl. The reaction was stopped by addition of 0.5 ml of water-saturated 1-butanol and 0.5 ml of 1-butanol-saturated water followed by a vigorous vortex for 5 min. After a brief spin, the top phase (butanol) was transferred to a fresh tube and washed again with 0.5 ml of butanol-saturated water. Finally, an aliquot of the butanol phase was mixed with scintillation cocktail to count radioactivity using Accurate Radioisotope Counting (ARC).
To assess the GPAT activity more precisely, a TLC separation procedure was utilized. […] For TLC, enzymatic products were identified using standards detected by exposure to […]. All quantitative data are expressed as mean±S.E. Statistical analyses for differences between two groups were carried out using a Student's t-test.
To further investigate the role of GPAT3 in TAG and/or phospholipid synthesis in mammalian cells, GPAT3 was overexpressed in HEK293 cells and the incorporation of [^14C]oleic acid into TAG or phospholipids was measured. […]

In another assay the target is T2, human mtGPAT1 (Homo sapiens, UniProt Q9HCL2).
T2 construct: expressed in transfected cells; host or cells: HEK293 cells, transient transfection (FUGENE 6); total lysate assayed
T2 sequence (Q9HCL2 1-828): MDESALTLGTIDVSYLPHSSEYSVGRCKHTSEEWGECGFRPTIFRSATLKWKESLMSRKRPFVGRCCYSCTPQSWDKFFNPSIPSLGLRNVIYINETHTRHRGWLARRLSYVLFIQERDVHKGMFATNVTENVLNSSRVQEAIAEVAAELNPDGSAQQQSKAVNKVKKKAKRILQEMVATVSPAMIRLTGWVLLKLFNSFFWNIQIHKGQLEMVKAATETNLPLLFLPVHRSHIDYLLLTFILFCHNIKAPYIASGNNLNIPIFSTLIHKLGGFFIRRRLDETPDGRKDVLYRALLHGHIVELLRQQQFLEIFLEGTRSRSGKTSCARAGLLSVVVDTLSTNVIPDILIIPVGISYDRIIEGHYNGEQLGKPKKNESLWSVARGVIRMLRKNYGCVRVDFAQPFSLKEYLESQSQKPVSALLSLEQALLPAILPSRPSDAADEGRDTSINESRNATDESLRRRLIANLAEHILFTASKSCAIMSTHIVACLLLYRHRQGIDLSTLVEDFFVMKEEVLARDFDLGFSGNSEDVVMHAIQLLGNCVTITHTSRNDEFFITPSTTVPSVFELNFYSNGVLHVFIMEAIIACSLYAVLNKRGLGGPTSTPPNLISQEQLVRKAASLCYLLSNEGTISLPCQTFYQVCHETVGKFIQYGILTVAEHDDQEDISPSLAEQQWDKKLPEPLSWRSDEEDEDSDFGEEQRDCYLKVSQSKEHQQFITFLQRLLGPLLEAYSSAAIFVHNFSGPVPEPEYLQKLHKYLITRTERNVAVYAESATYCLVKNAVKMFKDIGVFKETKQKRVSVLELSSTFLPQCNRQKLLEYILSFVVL
The assay is described as follows: GPAT activity assay (TLC separation of LPA) in lysates of HEK293 cells overexpressing mtGPAT1. The note with it: preincubated 15 min with NEM. Type of assay: biochemical.

The subject of the next assay is mGPAT3 mRNA. The assay is described as follows: mGPAT3 mRNA (Q-PCR) in white adipose tissue of ob/ob mice treated with PPARγ agonist. Type of assay: in vivo, mouse. The note with it: 15 mg/kg gavage once a day for 21 days. Here is the method: To confirm and extend the transcriptional profiling data, TAQMAN® (Applied Biosystems, Foster City, Calif.) real-time quantitative PCR (Q-PCR) analysis was performed using probes specific for mouse and human GPAT3. Briefly, undifferentiated and differentiated 3T3-L1 adipocytes, tissues from normal 8-12 week old male C57B1/6J mice, and tissues from 10-week old male ob/ob and age-matched wild type control mice were obtained as previously described (Lake et al., supra). For PPARγ agonist treatment, 10-week old male ob/ob mice were gavaged once a day with 15 mg/kg rosiglitazone or vehicle control for 21 days. RNA and cDNA were prepared as previously described (Lake et al., supra). Gene profiling data were generated using the MOE430 chip according to the manufacturer's recommendations (Affymetrix, Santa Clara, Calif.). Q-PCR was performed using an ABI PRISM® 7900 sequence detector (Applied Biosystems, Foster City, Calif.) with 18s as an internal control as described (Lake et al., supra). Gene-specific primers and probes were obtained from Applied Biosystems (Cat. Nos. mm00554802_ml and Hs00262010_ml). Relative expression was determined by the […] (Applied Biosystems, Foster City, Calif.).
PPARγ agonists such as rosiglitazone induce expression of the lipogenic program in adipose tissue (Rosen and Spiegelman (2001) J. Biol. Chem. 276:37731-34). […]

For `O=P(O)(O)OCC(O)CO` (stereo not drawn) [G3P, glycerol 3-phosphate], at hGPAT3, the “substrate concentration at half-maximal activity (hGPAT3-dependent LPA formation)” value was around 80 µM.
`CCN1C(=O)C=CC1=O` [NEM, N-ethylmaleimide]: at human mtGPAT1, the “mtGPAT1-dependent LPA formation after NEM pretreatment” value was “not affected”. For the same molecule, the “increase in LPA formation conferred by hGPAT3 overexpression after NEM pretreatment” value on hGPAT3 (HEK293 lysates) and on hGPAT3 (Sf-9 lysates) was “completely abolished” throughout.
For the molecule `CCCCCCCCCCCC(=O)SCCNC(=O)CCNC(=O)[C@H](O)C(C)(C)COP(=O)(O)OP(=O)(O)OC[C@H]1O[C@@H](n2cnc3c(N)ncnc32)[C@H](O)[C@@H]1OP(=O)(O)O` [lauroyl-CoA], the “substrate concentration at half-maximal activity (hGPAT3-dependent LPA formation)” value on hGPAT3 was around 25 µM.
Regarding `CN(CCOc1ccc(CC2SC(=O)NC2=O)cc1)c1ccccn1` (stereo not drawn) [rosiglitazone], the “induced expression of mGPAT3 mRNA in white adipose tissue over control” value in the assay with mGPAT3 mRNA came out at 4.5 fold.
